Series [1] deals with human coronary artery smooth muscle cells (CASMC). Put plainly: Vascular smooth muscle cell (SMC) antiproliferation assay. In kind it is cell-based. The conditions noted are these: viable cell count (Trypan Blue exclusion) ~68 hours after compound addition. How it is done: Suppression of Proliferation of Human Coronary Artery Smooth Muscle Cells (CASMC)
Vascular Smooth Muscle Cell (SMC) Antiproliferation Assay
The cells used in this assay were human coronary artery smooth muscle cells (CASMC) supplied by Clonetics Corp. (San Diego, Calif.). They were maintained in SmGM-2 growth medium (Clonetics Corp.), which consisted of modified MCDB 131 medium supplemented with 5% (v/v) fetal bovine serum (FBS), 0.5 ng/mL human recombinant epidermal growth factor (EGF), 2 ng/mL human recombinant fibroblast growth factor (FGF), 5 μg/mL bovine insulin, 50 μg/mL gentamicin sulfate, and 50 ng/mL amphotericin B under humidified 95% air-5% CO2 at 37° C. Cells were used for experiments up to about 17 cumulative population doublings (i.e., passage 9); at this age they still stained positive for smooth muscle actin, a protein marker for smooth muscle cells.
For the SMC antiproliferation assay, the cells were seeded at 3×10^4 viable cells in 2 mL of SmGM-2 medium per well of a Corning 24 tissue culture well plate (Corning, N.Y.). Stock solutions of the test compounds were prepared just prior to addition to the cells by dissolving in DMSO at a concentration of 1000 times the highest concentration to be assayed. This stock solution was diluted, as required, with DMSO to lower concentrations. On the same day the cells were seeded, but after they had attached and spread out (about 3 hours), each test compound in varying concentrations (2 μL of the diluted stock solutions) was added to four replicate wells (n=4) for each concentration. Control cultures received 2 μL of DMSO per well (n=4). On the following morning, the cultures were examined microscopically and their condition recorded. On the third day after test compound addition (˜68 hours), the cultures were examined microscopically again and the viable cells counted with an hemacytometer following trypsinization with 0.25% trypsin-1 mM EDTA. Trypan Blue dye exclusion was used to discriminate between viable and dead cells. The results were usually presented as % of the control viable cell count (mean±SEM) and were used to determine the IC50 for the inhibition of proliferation of vascular smooth muscle cells.

Where [2] appears, read: Homo sapiens, n=4, read-out: IC 50 for the inhibition of proliferation of vascular smooth muscle cells, Nitrosated and/or Nitrosylated Compound.
Where [3] appears, read: n=4, read-out: IC 50 for the inhibition of proliferation of vascular smooth muscle cells, Non-nitrosated and/or Non-nitrosylated Compound.

Read-outs that look alike come from different tables or passages of the source.

Turning to `CC(C)(CNC(=O)COc1ccc2c(c1)CC[C@@H]1[C@@H]2CC[C@]2(C)[C@@H](O)CC[C@@H]12)SN=O` [Example 42, 2-((1S,11S,14S,15S,10R)-14-Hydroxy-15-methyltetracyclo(8.7.0.0<2,7>0.0<11,15>)heptadeca-2,4,6-trien-5-yloxy)-N-(2-methyl-2-(nitrosothio)propyl)acetamide], the melting point was 40 °C. The IC50 in series [1] (setting [2]) is 9 µM.
`COc1ccc(C=C2c3ccccc3C(=NOCC(=O)NCC(C)(C)SN=O)c3ccccc32)cc1O` [Example 51, 2-((10-((3-Hydroxy-4-methoxyphenyl)methylene)(9-anthrylidene))-azamethoxy)-N-(2-methyl-2-(nitrosothio)propyl)acetamide] showed a melting point of 143 to 145 °C. The IC50 in series [1] (setting [2]) amounted to 10 µM.
In the same order, the values of `CC(C)(CNC(=O)CO/N=C1\C[C@@H]2[C@H](CC[C@]3(C)[C@@H](O)CC[C@@H]23)c2ccc(O)cc21)SN=O` [Example 41, 2-(((1S,11S,14S,15S,10R)-5,14-dihydroxy-15-methyltetracyclo(8.7.0.0<2,7>0.0<11,15>)heptadeca-2,4,6-trien-8-ylidene)azamethoxy)-N-(2-methyl-2-(nitrosothio)propyl)acetamide] are 145 to 150 °C and 10 µM.
With `C[C@]12CC[C@@H]3c4ccc(OC(=O)CCC(=O)O[C@H]5CO[C@H]6[C@@H]5OC[C@H]6O)cc4CC[C@H]3[C@@H]1CC[C@@H]2O` [Example 58, (1S,11S,14S,15S,10R)-14-Hydroxy-15-Methyltetracyclo(8.7.0.0<2,7>0.0<11,15>)heptadeca-2,4,6-trien-5-yl(1S,2S,5R,6R)-6-hydroxy-4,8-dioxabicyclo(3.3.0)oct-2-yl butane-1,4-dioate], the melting point was in the range of 79 to 80 °C. For the same molecule, the IC50 in series [1] (setting [3]) amounted to 12 µM.
The like results for `C[C@]12CC[C@@H]3c4ccc(OC(=O)CCC(=O)OCCC5(S)C6CC7CC(C6)CC5C7)cc4CC[C@H]3[C@@H]1CC[C@@H]2O` (stereo partly drawn) [Example 30, (1S,11S,14S,15S,10R)-14-Hydroxy-15-methyltetracyclo(8.7.0.0<2,7>0.0<11,15>)heptadeca-2,4,6-trien-5-yl 2-(2-sulfanyladamantan-2-yl)ethyl butane-1,4-dioate] were, in that order, 133 to 136 °C and 4 µM.
As to `C[C@]12CC[C@@H]3c4ccc(OC(=O)CCC(=O)O[C@H]5CO[C@H]6[C@@H]5OC[C@H]6O[N+](=O)[O-])cc4CC[C@H]3[C@@H]1CC[C@@H]2O` [Example 32b, (1S,11S,14S,15S,10R)-14-Hydroxy-15-methyltetracyclo(8.7.0.0<2,7>0.0<11,15>)heptadeca-2,4,6-trien-5-yl(1S,2S,5S,6R)-6-(nitrooxy)-4,8-dioxabicyclo(3.3.0)oct-2-yl butane-1,4-dioate], the melting point was 163 to 165 °C. Besides, the IC50 in series [1] (setting [2]) was 8 µM.
Molecule `C[C@]12CC[C@@H]3c4ccc(OCC(=O)OCCC5(S)C6CC7CC(C6)CC5C7)cc4CC[C@H]3[C@@H]1CC[C@@H]2O` (stereo partly drawn) [Example 45, 2-(2-Sulfanyladamantan-2-yl)ethyl 2-((1S,11S,14S,15S,10R)-14-hydroxy-15-methyltetracyclo(8.7.0.0<2,7>0.0<11,15>)heptadeca-2,4,6-trien-5-yloxy)acetate] gave a melting point of 78 to 80 °C. In addition, the IC50 in series [1] (setting [3]) was found to be 8 µM.
As to `C[C@]12CC[C@@H]3c4ccc(O)cc4/C(=N/OCC(=O)OCCC4(SN=O)C5CC6CC(C5)CC4C6)C[C@H]3[C@@H]1CC[C@@H]2O` (stereo partly drawn) [Example 37, 2-(2-(Nitrosothio)adamantan-2-yl)ethyl 2-(((1S,11S,14S,15S,10R)-5,14-dihydroxy-15-methyltetracyclo(8.7.0.0<2,7>0.0<11,15>)heptadeca-2,4,6-trien-8-ylidene)azamethoxy)acetate], the melting point lay in the range of 75 to 80 °C. The IC50 in series [1] (setting [2]) lay within 1.4 to 2 µM.
With `C[C@]12CC[C@@H]3c4ccc(OC(=O)c5ccccc5)cc4CC[C@H]3[C@@H]1CC[C@@H]2OC(=O)CCC(=O)O[C@H]1CO[C@H]2[C@@H]1OC[C@H]2O` [Example 57, (1S,11S,14S,15S,10R)-15-Methyl-5-phenylcarbonyloxytetracyclo(8.7.0.0<2,7>0.0<11,15>)heptadeca-2,4,6-trien-14-yl(1S,2S,5R,6R)-6-hydroxy-4,8-dioxabicyclo(3.3.0)oct-2-yl butane-1,4-dioate], the melting point was in the range of 136 to 137 °C. Moreover, the IC50 in series [1] (setting [3]) was above 80 µM.
Take `C[C@]12CC[C@@H]3c4ccc(O)cc4/C(=N/OCC(=O)OCCC4(S)C5CC6CC(C5)CC4C6)C[C@H]3[C@@H]1CC[C@@H]2O` (stereo partly drawn) [Example 46, 2-(2-sulfanyladamantan-2-yl)ethyl 2-(((1S,11S,14S,15S,10R)-5,14-dihydroxy-15-methyltetracyclo(8.7.0.0<2,7>0.0<11,15>)heptadeca-2,4,6-trien-8-ylidene)azamethoxy)acetate]: the melting point fell in the range of 85 to 90 °C. Besides, in series [1] (setting [3]), the IC50 lay in the range of 5 to 12 µM.

(Values after patent US20060009431A1, “Nitrosated and nitrosylated compounds, compositions and methods use” (NitroMed, Inc., priority 2003, published 2006).)
